From patent EP1717249A1, “Peptides containing a cholesterol recognition sequence and their uses” (GEORGETOWN UNIVERSITY, priority 1998, dated 1999)

Assays:
recombinant mPBR = biological target: T1, recombinant mPBR (Mus musculus, UniProt P50637); experiment: 3H-PK 11195 radioligand binding to recombinant PBR (wild-type and mutated) expressed in IPTG-induced E. coli; settings: 3H-PK 11195 binding to IPTG-induced bacteria expressing mouse PBR, Scatchard analysis
T1 construct: made in house; host or cells: Escherichia coli BL21(DE3), IPTG-induced
From the text: Construction of the mouse PBR expression vector (pET15bPBR) and Expression of Recombinant PBR in bacteria- The pET system (Novagen, Madison, WI) was used to express the MA-10 mouse PBR (mPBR) recombinant protein. […] This mPBR fragment was inserted into pET15b vector and linearized with NdeI and XhoI downstream of the T71ac promoter. Recombinant mPBR expression vector was used to transform the BL21(DE3) Escherichia coli strain (Novagen) where the expression of recombinant mPBR protein was induced by 1mM isopropyl-1-thiol-β-D-galactopyranoside (IPTG). PBR protein expression was monitored by SDS-PAGE followed by Coomassie Blue staining or immunoblot analysis using anti-PBR antiserum (Amri et al. 1996, supra). Binding specificity of the IPTG-induced PBR in E. coli was determined in binding studies where specific binding of ^3H-PK 11195 (1.0 nM) was measured in the presence of the indicated concentrations of the indicated ligands.
Radioligand binding assays- ^3H-1-(2-chlorophenyl)-N-methyl-N-(1-methyl-propyl)-3-isoquinolinecarboxamide (PK 11195) binding studies were performed as we previously described (Papadopoulos, V. et al. 1990, J. Biol. Chem. 265: 3772-3779; Garnier, M. et al. 1994, Mol. Pharm. 45:201-211). […]

PBR = biological target: T2, PBR (Mus musculus, UniProt P50637); experiment: Ligand-induced release of 3H-cholesterol from membranes of IPTG-induced transformed bacteria; type: biochemical; settings: cholesterol-loaded bacterial membranes (Fig. 3F)
T2 construct: made in house; host or cells: Escherichia coli BL21(DE3), IPTG-induced
Method: ^3H-Cholesterol uptake by E. coli cells was examined using the indicated concentrations of control or IPTG-treated transformed bacteria incubated in the presence of 6.7 nM ^3H-cholesterol (50.0 Ci/mmol) for 60 min at 37°C. Specific cholesterol uptake is defined as IPTG-induced minus basal values.

isolated mitochondria = settings: cited from earlier work

Bmax (recombinant mPBR) [pmol/mg protein] | Compound | 3H-cholesterol released from cholesterol-loaded bacterial membranes (PBR) | intramitochondrial cholesterol transport and pregnenolone formation (mitochondrial steroidogenesis) (isolated mitochondria)
0.23 | CCC(C)N(C)C(=O)c1cc2ccccc2c(-c2ccccc2Cl)n1 (stereo not drawn) [PK 11195, 1-(2-chlorophenyl)-N-methyl-N-(1-methyl-propyl)-3-isoquinolinecarboxamide] | cholesterol was liberated from the membranes | 
 | TTN: naturally occurring processing product of DBI, the triakontatetrapeptide TTN (DBI17-50) (KTKPSDEEMLFIYGHYKQATVGDINTERPGMLDF; Triakontatetraneuropeptide; UniProt P07108 17-50, looked up, fragment) |  | able to mimic the effect of DBI
